Experimental data taken from patent US20260007679A1, “METHODS OF TREATING CANCER USING 3-(4-((4-(MORPHOLINOMETHYL)BENZYL)OXY)-1-OXOISOINDOLIN-2-YL)PIPERIDINE-2,6-DIONE” (Celgene Corporation, priority 2012, published 2026).
Where two headings read alike, the source gives them in different places.

Key:
[1] = system: DoHH2 Follicular Lymphoma xenograft; experiment: DoHH2 Follicular Lymphoma xenograft model; assay type: in vivo, mouse
[2] = system: WSU-DLCL2 DLBCL xenograft; experiment: WSU-DLCL2 DLBCL xenograft model
[3] = system: megakaryocyte progenitor cells (normal human bone marrows); experiment: Megakaryocyte colony formation assay; assay type: cell-based; conditions: Homo sapiens, 14-16 days
Description: Colony formation assay was conducted with normal human bone marrows treated in semi-solid collagen matrix with compound/IL-3/IL-6/Tpo for 14-16 days, and the results are summarized in Table 7.

[4] = system: Revlimid-resistant NCI-H929 R1-10; experiment: Proliferation and viability by 7-AAD staining; assay type: cell-based; conditions: Homo sapiens, NCI-H929, 120 h, read-out: IC50, proliferation
[5] = target: T1, endogeneous human CRBN (U266 extract) (Homo sapiens, UniProt Q96SW2); experiment: Thalidomide affinity bead competition assay; assay type: binding; conditions: 3 μM
T1 construct: endogenous in cells; host or cells: U266 human multiple myeloma cells (NP-40 lysate)
Description: Affinity beads coupled to a thalidomide acid analog were incubated with the U266 extracts and, after extensive washing of the beads, the bound proteins were eluted. CRBN binding to the thalidomide-coupled affinity beads was determined by quantitative CRBN immunoblot determination.

[6] = system: Revlimid-resistant NCI-H929 R3-10; experiment: Proliferation and viability by 7-AAD staining; assay type: cell-based; conditions: Homo sapiens, NCI-H929, 120 h, read-out: IC50, proliferation
[7] = system: purified primary human T cells stimulated using immobilized anti-CD3 antibody; experiment: T-cell costimulation, IL-2 production; assay type: cell-based
Description: CRBN ubiquitination was measured in HEK293T cells, which were transfected with an amino-terminal His-biotin-tagged CRBN construct, then preincubated with compounds for one hour followed by treatment with the MG132 proteasome inhibitor (to arrest degradation of ubiquitinated proteins). Cells were lysed and processed to measure CRBN ubiquitination by SDS-PAGE and immunoblot analysis using an anti-ubiquitin antibody. Cell proliferation studies were conducted in lenalidomide-sensitive and refractory multiple myeloma cells. […] T-cell costimulation was measured in purified primary human T cells stimulated using immobilized anti-CD3 antibody in cell culture for 2 days, and cytokine secretion was measured by ELISA.

[8] = system: Revlimid-resistant NCI-H929 R4-10; experiment: Proliferation and viability by 7-AAD staining; assay type: cell-based; conditions: Homo sapiens, NCI-H929, 120 h, read-out: IC50, proliferation
[9] = system: NCI-H929 cells (Control, Revlimid-sensitive, parental); experiment: Proliferation and viability by 7-AAD staining; assay type: cell-based; conditions: Homo sapiens, NCI-H929, 120 h, read-out: IC50, proliferation
[10] = system: Revlimid-resistant NCI-H929 R2-10; experiment: Proliferation and viability by 7-AAD staining; assay type: cell-based; conditions: Homo sapiens, NCI-H929, 120 h, read-out: IC50, proliferation
[11] = system: normal donor peripheral blood mononuclear cells; experiment: Immunoglobulin M and G production; assay type: cell-based; conditions: Homo sapiens, PBMC
Description: Immunoglobulin M and G (“IgG and IgM”) production was measured from normal donor peripheral blood mononuclear cells by culturing in the presence of the B cell differentiation factors recombinant human IL-2 (20U/mL), IL-10 (50 ng/mL), IL-15 (10 ng/mL), His-tagged CD40 Ligand (50 ng/mL), polyHistidine mouse IgG1 antibody (5 μg/mL), and ODN 2006-Human TLR9 ligand (10 μg/mL) for 4 days, followed by IL-2, IL-10, IL-15, and IL-6 (50 ng/mL) for an additional 3 days. IgM and IgG were measured by ELISA.

[12] = 30 mg/kg monotherapy, Compound I-S: 84% S-enantiomer, 16% R-enantiomer
[13] = 30 mg/kg with Rituxan 1 mg/kg, Compound I-S: 84% S-enantiomer, 16% R-enantiomer
[14] = 40 mg/kg monotherapy, Compound I-S: 91% S-enantiomer, 9% R-enantiomer
[15] = Bone Marrow ID 0090128, read-out: Immature Colony IC50
[16] = Bone Marrow ID 0090128, read-out: Intermediate Colony IC50
[17] = Bone Marrow ID 0090616, read-out: Immature Colony IC50
[18] = Bone Marrow ID 0090616, read-out: Intermediate Colony IC50
[19] = Bone Marrow ID 0090714, read-out: Immature Colony IC50
[20] = Bone Marrow ID 0090714, read-out: Intermediate Colony IC50

rituximab [Rituxan, reference compound]
% TGD ((T − C)/C) ([1]; 1 mg/kg monotherapy): 34%
% TGI at D12 (T/C) ([1]; 1 mg/kg monotherapy): 19%
Tumor Free Survival on Day 44 ([2]; Rituxan 2 mg/kg iv qw alone): 2/10

Nc1cccc2c1CN(C1CCC(=O)NC1=O)C2=O (stereo not shown) [Revlimid, lenalidomide, reference compound]
% TGD ((T − C)/C) [1, 12]: 12%
% TGI at D12 (T/C) [1, 12]: 19%
% TGD ((T − C)/C) [1, 13]: 52%
% TGI at D12 (T/C) [1, 13]: 54%
% TGD ((T − C)/C) [1, 14]: 17%
% TGI at D12 (T/C) [1, 14]: 49%
IC50 [3, 15]: 1300 nM
IC50 [3, 16]: > 10000 nM
IC50 [3, 17]: 560 nM
IC50 [3, 18]: 1300 nM
IC50 [3, 19]: 410 nM
IC50 [3, 20]: > 10000 nM
Tumor Free Survival on Day 44 ([2]; 30 mg/kg in combination with Rituxan 2 mg/kg iv qw): 6/9

Nc1cccc2c1C(=O)N(C1CCC(=O)NC1=O)C2=O (stereo not shown) [Pomalidomide, pomalidomide, reference compound]
IC50 [4]: > 30000 nM
less CRBN bound to the affinity beads [5]: approximately 50%
IC50 [6]: 6300 nM
EC50 [7]: 10 nM
IC50 [3, 15]: > 10000 nM
IC50 [3, 16]: > 10000 nM
IC50 [3, 17]: 350 nM
IC50 [3, 18]: 1400 nM
IC50 [3, 19]: 1000 nM
IC50 [3, 20]: > 10000 nM
IC50 [8]: 14000 nM
IC50 [9]: 90 nM
IC50 [10]: > 30000 nM
IC50 ([11]; read-out: IgG production IC50): 63 nM
IC50 ([11]; read-out: IgM production IC50): 17 nM
